In article PMC7010350 (ACS chemical biology, 2019):

Columns and labels:
Type in all cases: physicochemical
[1] = Solubility of the lyophilized peptide on resuspension in water or methanol; conditions: aqueous suspension relyophilized and resuspended in methanol
[2] = Susceptibility of the disulfide bond to reduction with DTT or β-mercaptoethanol; conditions: LC-MS
[3] = Thermostability, heat treatment at 95 °C for 2 h, LC-MS

Row | Substance | solubility in methanol (in words) [1] | peptide reduced, 20 mM DTT with heating ([2]; 20 mM DTT, 95 °C for 2 h) | reduction of the disulfide bond, 20 mM DTT, room temperature ([2]; 20 mM DTT, room temperature 1 h, aqueous peptide 5.8 mg/mL) | peptide reduced, 5% β-ME with heating (in words) ([2]; 5% (~641 mM) β-mercaptoethanol, 95 °C for 2 h) | thermally induced unthreading (in words) [3]
1 | pandonodin | readily dissolved | less than 10% | no reduction products were observed | a majority of pandonodin was reduced | only minimal unthreading
2 | pandonodin C16A C21A [pandonodin AA] |  |  |  |  | significantly more pandonodin AA unthreaded than did wild-type pandonodin
